In data set [1] the target is T1, cold extract from Neonothopanus nambi (Neonothopanus nambi, UniProt A0A3G9K5C8).
T1 construct: an extract comprising the enzymes of the fungal bioluminescent system and free from low-molecular-weight components; from tissue; host or cells: Neonothopanus nambi mycelium, crude cold extract (30000 g supernatant of the homogenate)
In words: Bioluminescent test of hot-extract HPLC fractions with cold extract and NADPH. Particulars: cold extract from N. nambi, NADPH; values normalised against optical density at 360 nm. Format: biochemical. The method, then:
The obtained extracts were tested in a bioluminescent test described by Oliveira and Stevani (Photochem. Photobiol. Sci., 2009, 8, 1416) using a cold extract from Neonothopanus nambi.
In order to obtain a cold extract, the mycelium was washed to get rid of culture medium, then, it was put into a 200-fold amount of distilled water for 15 hours at 26° C. Thereafter, the mycelium was separated from water by centrifugation, then, it was homogenized on ice in 10 volumes of 0.2 M phosphate buffer, pH 7.5 and sonicated on ice for 10 minutes using Ultrasonic disintegrator UD-20. The homogenate was centrifuged at 30000 g at […] for 20 minutes. The obtained cold extract was stored at −20° C.
500 μl of the following components were mixed for a bioluminescent test: 25 μL of cold extract, 2 μL of hot extract, 442 μL 0.2 M phosphate buffer, pH 7.5, 1 μL 1 M DTT and 10 μL 1% Triton X-100. The bioluminescent reaction was initiated in a Glomax 20/20 (Promega, USA) luminometer cuvette by adding 20 μL 20 mM NADPH. Luminescence was measured at 23±1° C.
The maximum luminescence of fractions 1-6 was 24000, 80, 6670, 40, 1300 and 1000 correspondingly (a signal-to-noise ratio of the luminometer, the values were normalised against optical density at 360 nm).

Data set [2] concerns the target T2, luciferase and hispidin-3-hydroxylase (cold extract of N. nambi) (Neonothopanus nambi, UniProt A0A3G9K5C8).
T2 construct: an extract comprising the enzymes of the fungal bioluminescent system and free from low-molecular-weight components; from tissue; host or cells: Neonothopanus nambi mycelium, crude cold extract (30000 g supernatant of the homogenate)
In words: Dependence of maximal bioluminescence (Imax) on reagent concentration in the reaction mixture. Format: biochemical. The method, then: The concentrated hispidin solution was used to produce dilutions of 1/50, 1/500, 1/5000, 1/50000 in an aqueous solution with 0.1% Triton X-100 and 0.1% formic acid.
The reaction mixture in the bioluminometer cuvette comprised: 100 μL 0.1 M phosphate buffer, pH 7.5, containing 0.1 mM DTT, 4 μL of the cold extract of N. nambi, 1-5 μL of hispidin dilutions. The bioluminescent reaction was activated by adding 4 μL 10 mM NADPH. Bioluminescence was measured at 25° C.
The reaction mixture in the bioluminometer cuvette comprised: 100 μL 0.1 M phosphate buffer, pH 7.5, comprising 0.1 mM DTT, 4 μL of the cold extract of N. nambi, 4 μL 64 μM hispidin solution and various amounts of Triton X-100 detergent. The bioluminescent reaction was activated by adding 4 μL 10 mM NADPH. […] The optimal detergent concentration in the reaction mixture was determined as 0.015 to 0.03%. The maximum detergent concentration at which bioluminescence was observed was 0.5%.
The reaction mixture in the bioluminometer cuvette comprised: 100 μL 0.1 M phosphate buffer, pH 7.5, comprising 0.1 mM DTT, 4 μL of the cold extract of N. nambi, 4 μL […] hispidin solution. The bioluminescent reaction was activated by adding various amounts of NADPH. […] The minimum NADPH concentration which provided detectable bioluminescence was 20 μM.
The reaction mixture in the bioluminometer cuvette comprised: 100 μL 0.1 M phosphate buffer, pH 7.5, comprising various concentrations of DTT, 4 μL of the cold extract of N. nambi, 4 μL 64 μM hispidin solution. The bioluminescent reaction was activated by adding 4 μL 10 mM NADPH. […] The optimal DTT concentration in the reaction mixture was 0.5 to 3 mM. The maximum DTT concentration which provided bioluminescence was 10 mM.

In data set [3] the test system is luciferase and hispidin-3-hydroxylase. Briefly: Detection of luciferase and hispidin-3-hydroxylase in fungal cold extracts with hispidin and NAD(P)H. Format: biochemical. The method, then: Commercially available hispidin (Sigma-Aldrich, USA) was used for detecting luciferase and hispidin-3-hydroxylase in the cold extracts obtained from the mycelia of Neonothopanus nambi, Mycena citricolor, Panellus stipticus, and Armillaria borealis as described in Example 1.
Hispidin was dissolved in DMSO to a final concentration of 8 mg/ml (32 mM). Then, the obtained concentrated solution was diluted 500-fold by aqueous solution containing 0.1% Triton X-100 and 0.1% formic acid. Hispidin concentration in the obtained working solution was 64 μM.
The reaction mixture in Glomax 20/20 cuvette (Promega, USA) comprised: 100 μL 0.2 M phosphate buffer, pH 7.5, comprising 0.1 mM DTT and 0.1 mM EDTA, 1-5 μL of fungal extract, 4 μL 64 μM hispidin solution. The luminescent reaction was initiated by adding 4 μL 10 mM NADPH.
In a different experiment, the same samples were tested for the presence of luciferase and hispidin-3-hydroxylase activities as described above with the exception that NADH was used (instead of NADPH). In this case, luminescence was 2-3 times lower than when using NADPH.

In the next data set the test system is luciferase. Briefly: Detection of luciferase in microsomal fractions of cold extracts with 3-hydroxyhispidin. Format: biochemical. The following applies: aliquots with 0.006 ng and 0.16 ng of luciferin; microsomal fractions of four fungi. The method, then:
3-hydroxyhispidin was obtained as described in Example 3. The microsomal fractions of the cold extracts of Neonothopanus nambi, Mycena citricolor, Panellus stipticus and Armillaria borealis were used as biological samples. The cold extracts were obtained as described in Example 2. The microsomal fractions were obtained as described in Example 3.
10 μg of 3-hydroxyhispidin were dissolved in 1 mL 50% water-acetonitrile mixture containing 0.1% formic acid.
During the experiment, in each case, the background luminescence of the microsomal fraction was measured in the first place, and then, at 0.7 and 1.55 minutes, 3-hydroxyhispidin solution aliquots were added, which contained 0.006 ng and 0.16 ng of luciferin, correspondingly.

The nature of data set [4]: Stability of 3-hydroxyhispidin. Format: physicochemical.
Data set [5] is described as follows: Solubility of 3-hydroxyhispidin. The format is physicochemical.
The next data set has as its system fungal bioluminescence. Particulars: isolated from Pleurotus japonicus; cited from earlier work.
Setting [6] is: hispidin, NADPH, cold extract of N. nambi.
The mark [7] stands for this setting: 0.1 M phosphate buffer pH 7.5, 0.1 mM DTT, NADPH, 25° C.

Where only a bound is given, the exact number is not on record here.

T1 sequence (A0A3G9K5C8 whole entry): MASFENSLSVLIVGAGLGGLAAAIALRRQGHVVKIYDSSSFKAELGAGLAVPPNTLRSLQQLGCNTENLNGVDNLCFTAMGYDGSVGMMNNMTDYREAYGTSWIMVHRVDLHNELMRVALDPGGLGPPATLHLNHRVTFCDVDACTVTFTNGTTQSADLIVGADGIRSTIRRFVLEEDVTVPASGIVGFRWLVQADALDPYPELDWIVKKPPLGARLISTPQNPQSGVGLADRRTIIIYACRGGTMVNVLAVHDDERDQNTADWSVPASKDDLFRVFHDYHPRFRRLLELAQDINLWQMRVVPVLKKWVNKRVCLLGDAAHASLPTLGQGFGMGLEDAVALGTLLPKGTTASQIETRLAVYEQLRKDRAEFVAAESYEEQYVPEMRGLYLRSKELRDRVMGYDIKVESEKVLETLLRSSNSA
T2 sequence (A0A3G9K5C8 whole entry): as above

3.3-bishispidinyl [Fraction 2]: in data set [1], the maximum luminescence was 80 signal-to-noise ratio of the luminometer. With `O[C@H](CS)[C@H](O)CS` (racemic) [DTT, dithiothreitol, reference compound], in data set [2] (setting [6]), the “maximum DTT concentration which provided bioluminescence” value amounted to 10 mM. Take `O=c1cc(O)cc(/C=C/c2ccc(O)c(O)c2)o1` (single isomer, unassigned) [Fraction 1, (E)-6-(3,4-dihydroxystyryl)-4-hydroxy-2H-pyran-2-one]: in data set [1], the maximum luminescence is on record as 24000 signal-to-noise ratio of the luminometer. The “luminescence of cold extracts after adding hispidin and NADPH” value in data set [3] (4 μL 64 μM hispidin, 4 μL 10 mM NADPH, cold extracts of four fungi) is given as “Luminescence was detected in all cases”. For the same molecule, in data set [2] (setting [7]), the “hispidin concentration at which detectable luminescence was observed” value is no less than 0.002 µM and the “optimal hispidin concentration in the reaction mixture” value worked out at 2.5 µM. In addition, in data set [2] (probably substrate inhibition), the “hispidin concentration at which inhibition of the luminescent reaction was observed” value is given as “more than 5 μM”. For the molecule `O=c1cc(O)cc(/C=C\c2ccc(O)c(O)c2)o1` (single isomer, unassigned) [Fraction 3, (Z)-6-(3,4-dihydroxystyryl)-4-hydroxy-2H-pyran-2-one], the maximum luminescence in data set [1] is 6670 signal-to-noise ratio of the luminometer. Consider `O=c1cc(O)cc(/C=C/c2ccc(O)cc2)o1` (single isomer, unassigned) [Fraction 5, (E)-4-hydroxy-6-(4-hydroxystyryl)-2H-pyran-2-one], for which, in data set [1], the maximum luminescence was 1300 signal-to-noise ratio of the luminometer. Further, the “maximum intensity of sample luminescence, times lower as compared to using hispidin” value in data set [3] (bisnoryangonin added instead of hispidin) was “approximately 10 times”. Regarding `O=c1cc(O)cc(/C=C\c2ccc(O)cc2)o1` (single isomer, unassigned) [Fraction 6, (Z)-4-hydroxy-6-(4-hydroxystyryl)-2H-pyran-2-one], the maximum luminescence in data set [1] is listed as 1000 signal-to-noise ratio of the luminometer. Turning to `O=c1oc(/C=C/c2ccc(O)c(O)c2)cc(O)c1O` [3-hydroxyhispidin, (E)-6-(3,4-dihydroxystyryl)-3,4-dihydroxy-2H-pyran-2-one], the “luminescence of microsomal fractions after adding 3-hydroxyhispidin” value in the data set with luciferase was “luminescence was detected”. Moreover, the “storage time with no activity loss” value in data set [4] (lyophilized, −20° C., often no less than 60 days, normally no less than a year) was “no less than 30 days”. Also, in data set [4] (water solution), the thermal stability result was “can sustain short-term boiling”. Moreover, in data set [4] (water-acetonitrile mixture with formic acid, final concentration 0.1%), the stability during chromatography result is on record as “shows stability”. Also, in data set [5] (DMSO, acetonitrile, acetone, etc.), the “solubility in aprotic solvents” value is “readily soluble”. Further, the solubility in water entry in data set [5] (water) was “moderately soluble”. In the case of `O=c1cc(O)cc(C=Cc2cc(O)c(O)cc2-c2c(O)cc(C=Cc3ccc(O)cc3)oc2=O)o1` [Fraction 4, 3-bisnoryangonyl-14-hispidin], the maximum luminescence in data set [1] is reported as 40 signal-to-noise ratio of the luminometer. On to `CC1=C2C(=C[C@@](C)(CO)[C@@H]2O)C(=O)[C@](C)(O)C12CC2` [illudin S], for which the bioluminescent activity entry with fungal bioluminescence is “did not show bioluminescent activity”. As for `Cc1cc2nc3c(=O)[nH]c(=O)nc-3n(C[C@H](O)[C@H](O)[C@H](O)COC3OC(CO)C(O)C3O)c2cc1C` (some centres unmarked) [lampteroflavin], the bioluminescent activity entry in the data set on fungal bioluminescence is “did not show bioluminescent activity”. In the case of `Cc1cc2nc3c(=O)[nH]c(=O)nc-3n(C[C@H](O)[C@H](O)[C@H](O)CO)c2cc1C` [riboflavin], in the data set with fungal bioluminescence, the bioluminescent activity result is on record as “did not show bioluminescent activity”.

Turning to Triton X-100 [reference compound], the “maximum detergent concentration at which bioluminescence was observed” value in data set [2] (setting [6]) came out at 0.5%. On to “nicotinamide adenine dinucleotide phosphate [NADPH, reference compound]”, for which the “minimum NADPH concentration which provided detectable bioluminescence” value in data set [2] (hispidin, cold extract of N. nambi, pH 7.5) worked out at 20 µM.

Values taken from patent US12473582B2, “Method and agents for detecting luciferase activity” (LIGHT BIO, INC., priority 2015, dated 2025).
